One data set has as its system Ih channel. As to conditions: literature (Neuroscience 1994; Br J Pharmacol 1998); cited from earlier work.
In data set [1] the test system is heart rate. Description: Heart rate after oral administration in humans. As to conditions: over 9 h following administration, 5, 10, 20 mg per subject. The class given is in vivo, human. As for the experimental part: (§1) Cilobradine chloride salt was administered at a dose of 5, 10 and 20 mg per subject in the form of capsules. These doses are equal to 0.07, 0.14, and 0.28 mg/kg cilobradine chloride salt assuming a body weight of 70 kg. […] Cilobradine hydrochloride was administered at a dose of 0.1 mg/kg and 0.3 mg/kg as a suspension. […] There are some differences between cats and humans in terms of pharmacokinetics of cilobradine, which might be related to differences in absorption, metabolisation, distribution, or excretion.

Data set [2] relates to heart rate. The experiment in a line: Pharmacodynamic profile (telemetric heart rate) in the conscious cat. The data set is classed as in vivo. How it is done:
as §1
The pharmacodynamic profile of cilobradine hydrochloride was characterised at two dose levels administered by the oral route, once and twice daily, in the conscious cat. The study involved 2 groups of 3 male European Short Hair cats weighing between 4.15 kg and 4.75 kg on the day of the first treatment. Each cat was dosed with cilobradine hydrochloride once (sid) and twice (bid) daily successively at 0.1 or 0.3 mg/kg in a cross over-design. Each treatment was separated by an interval of 24 hours (sid) or 12 hours (bid). A washout period of 7 days was scheduled between the 2 dosing periods. Cats were previously instrumented with telemetric transmitters for heart rate measurements. Telemetric measurements were recorded for 15 seconds every 5 minutes at a sampling rate of 500 Hz on D-2, D-1, from D0 up to D9 and from D16 up to D25 except for D4 and D20 during blood sampling.

Data set [3] can be described thus: Pharmacokinetics in healthy cats, once daily po. for 4 days. The class given is in vivo. To be noted: cat. As for the experimental part: as §1
Another data set has as its system healthy cats. Description: Effects on vasomotor tone, myocardial contractility and lusitropy in healthy cats. The class given is in vivo, cat. To be noted: therapeutically relevant doses. The source says:
“Funny If current inhibitors”, also referred to as “If channel blockers” or “If current inhibitors” herein, relate to If inhibitors including pharmaceutically acceptable salts thereof, which selectively block hyperpolarization-activated cyclic nucleotide-gated channels (HCN) in cardiac conductive tissue, channels responsible for the transmembrane current known as If. It is through blockade of this current that If channel blockers are assumed to produce their specific bradycardic effect. HCN channels are widely distributed in the nervous system and in the eye they mediate the current known as Ih. The effect of zatebradine and cilobradine on the Ih channel has also been investigated (See Neuroscience, Vol. 59(2), pp. 363-373, 1994 for zatebradine, and British Journal of Pharmacology, Vol. 125, pp. 741-750, 1998 for cilobradine). […] Cilobradine in particular reduces the heart rate in the sinoatrial node of the heart by selective blockade of If channels (“funny channels”) through a direct interaction with predominantly HCN4 channels. This blockage is potent and has a dosage and voltage dependency. Because of the high selectivity to the If current, effects on vasomotor tone or myocardial contractility and lusitropy are not observed at therapeutically relevant doses in healthy cats. […]

The test system of data set [4] is cats suffering from HF due to HCM. Description: Blinded, controlled, randomised efficacy field study in HCM cats. As to conditions: HCM cat; for Right heart enlargement (score): X-ray. The data set is classed as in vivo. Set-up: key to Right heart enlargement (score): Score 1: normal size; Score 2: mild enlargement; Score 3: moderate enlargement; Score 4: severe enlargement. How it is done:
A blinded, controlled, randomised, efficacy field study was conducted with HCM cats receiving cilobradine (initial dose: 0.2 mg/kg po. twice daily) or a placebo (dose: 0.0 mg/kg po. twice daily) for 85 days. The dose of cilobradine could be adjusted during the study (dose range 0.1-0.5 mg/kg per-oral twice daily). The administration of furosemide was allowed in both groups. All cats were hospitalised in the first week of the study (study days 1-6), and they were allowed to go home afterwards (study days 7-85).
Cats with a diagnosis of HCM were included in the study. The diagnosis of HCM was established by using echocardiography showing global, regional or segmental thickness of the interventricular septum and/or left ventricular free-wall in diastole greater than 6 mm. Further inclusion criteria were: systolic blood pressure less than 170 mmHg; serum thyroxine (T4) was normal; and body weight was higher than 2 kg.
The owner provided a signed informed consent for the animal to enter the study. Cats that suffered from heart disease were scored using a 4 point score adapted from the ISACHC as follows: • Score 1: presence of heart disease associated with no clinical signs but detectable (e,g, auscultation, echocardiography and radiography); • Score 2: clinical signs of heart failure evident and adversely affect the quality of life. Typical signs include dyspnea/tachypnea, pulmonary congestion, weakness/lethargy, anorexia, exercise intolerance; • Score 3: clinical signs of advance heart failure immediately obvious. These clinical signs could have included respiratory distress, marked ascites/pulmonary congestion, profound exercise intolerance or hypoperfusion at rest; and • Score 4: severe cases: subject was moribund, suffered from cardiogenic shock or acute posterior paresis/paralysis. Hospitalization was mandatory.
Cats having one or more of the following criteria were excluded: • a) The cat had received one or more of the following pretreatments: calcium channel blockers, e.g. diltiazem, angiotensin converting enzyme inhibitors, f3-blockers, acetylsalicylic acid, or digitales glycosides. (Cats pre-treated with furosemide alone were allowed to be included in either of the groups if they matched all inclusion criteria above.) • b) Elevated serum T4 level; • c) Elevated serum blood urea nitrogen (BUN) levels higher than 90 mg/dL or elevated serum creatinine levels higher than 3 mg/dL; • d) Systolic arterial blood pressure greater than or equal to 170 mmHg; • e) Dilated cardiomyopathy (DCM); • f) Suffered from heart disease with a score of 4 (adapted ISACHC score) or with no documented episode of heart failure (score 2 or 3) within 30 days before enrollment; • g) Fixed aortic stenosis; • h) Were pregnant or lactating queens; • i) Were nursing kittens; • j) Body weight less than 2 kg; or • k) Presence of sinus bradycardia (heart rate less than 120 bpm at consultation).
The cat's quality of life was assessed on a daily basis using the following grading system: 1 (better), 2 (equal), 3 (worse).
Furthermore, right heart enlargement was assessed by X-ray using the following scoring system: Score 1: normal size; Score 2: mild enlargement; Score 3: moderate enlargement; and Score 4: severe enlargement. Mild enlargement of the right side of the heart was observed using X-ray in the cat receiving a placebo at the end of the study. In contrast, the right side of the heart was normal in the cat receiving cilobradine throughout the study (see Table 10).

Data set [5] is described as follows: Pharmacokinetics in healthy human male subjects, once daily po. for 7 days. The class given is in vivo. How it is done:
as §1

Data set [6] concerns healthy cats and cats with hypertrophic cardiomyopathy. To be noted: cited from earlier work.
A further data set in a line: Lipophilicity profile. The data set is classed as physicochemical. As to conditions: neutral pH versus acidic pH. The source says:
Usually, EC/HPMC films show a sustained release behaviour that is independent of pH. […] This profile, together with the coating applied, may have led to a slower release.

Data set [7] concerns left atrial systolic and global function. To be noted: feline CMP; cited from earlier work.

Like-named read-outs stand apart in the source and are kept apart here.

As for `COc1ccc(CCN(C)CCCN2CCc3cc(OC)c(OC)cc3CC2=O)cc1OC` [zatebradine, reference compound], in the data set on Ih channel, the “block of Ih” value is recorded as “can also be blocked”.

`COc1ccc(CCN2CCC[C@H](CN3CCc4cc(OC)c(OC)cc4CC3=O)C2)cc1OC` [Cilobradine, (+)-3-[(N-(2-(3,4-dimethoxy-phenyl)ethyl)-piperidin-3-(S)-yl)-methyl]-(7,8-dimethoxy-1,3,4,5-tetrahydro-2H-3-benzazepin-2-on)]: the heart rate reduction result with heart rate [1] is on record as “dose dependent heart rate reduction”; in the data set on heart rate [2] (cats, over 9 h following administration, 0.1 and 0.3 mg/kg) it was “dose dependent heart rate reduction”. The “block of Ih” value with Ih channel was “can also be blocked”. Moreover, the Half-life in data set [3] (in vivo, healthy cats, once daily po. for 4 days, 0.1 and 0.3 mg/kg, read-out: half-life) fell in the range of 2.53 to 3.52 h; in data set [5] (in vivo, healthy human male subjects, once daily po. for 7 days, 5-20 mg per subject, read-out: half-life), 10.1 to 13.9 h. Besides, the “effects on vasomotor tone or myocardial contractility and lusitropy” value in the data set with healthy cats was “not observed”. Further, the “reduction of the interventricular septal thickness in systole compared to placebo” value in data set [4] was “considerably greater”. In addition, the “Interventricular septal thickness in systole” value in data set [4] (SD 0 (baseline)) is listed as 11.7 mm; in data set [4] (SD 84), 7.5 mm. Besides, the Heart rate is recorded as 152 beats per minutes in data set [4] (SD 0 (baseline), initial dose 0.2 mg/kg po. twice daily); 120 beats per minutes in data set [4] (SD 7); 144 beats per minutes in data set [4] (SD 28); 124 beats per minutes in data set [4] (SD 56); 210 beats per minutes in data set [4] (SD 84). Further, the “Right heart enlargement (score)” value in data set [4] (SD 0 (baseline)) and in data set [4] (SD 84) was 1 each time. The quality of life entry in [4] (daily owner grading 1 (better), 2 (equal), 3 (worse), FIG. 1) is “almost continuous improvement”. The “heart rate (in words)” value in data set [4] (study period, versus placebo cat) is “reduced throughout the study”. In data set [4] (throughout the study), the “right side of the heart (X-ray)” value is listed as “normal”.

With `COc1cc2c(cc1OC)CC(=O)N(CCCN(C)C[C@H]1Cc3cc(OC)c(OC)cc31)CC2` [ivabradine, 3-[3-[[[(7S)-3,4-dimethoxybicyclo[4.2.0]octa-1,3,5-trien-7-yl]methyl]methylamino]propyl]-1,3,4,5-tetrahydro-7,8-dimethoxy-2H-3-benzazepin-2-one], in data set [6] (healthy cats), the heart rate reduction result is “significant heart rate reduction” and the “negative chronotropic effect, dose relation” value is recorded as “dose-dependency”. Further, the heart rate reduction entry in data set [6] (subclinical HCM cats) is on record as “significant heart rate reduction”.

As to `COc1ccc(CCN2CCC[C@H](CN3CCc4cc(OC)c(OC)cc4CC3=O)C2)cc1OC.Cl` [cilobradine hydrochloride], the lipophilicity profile entry in the data set “Lipophilicity profile” was “slightly more lipophilic at neutral pH values”. The bradycardia result in the data set on heart rate [2] (conscious cat, oral 0.1 and 0.3 mg/kg per day, sid and bid) is “dose-dependent bradycardia”. For the same compound, the Half-life was 3.52 h in data set [3] (0.1 mg/kg, suspension, once daily po. 4 days); 2.53 h in [3] (0.3 mg/kg, suspension, once daily po. 4 days); 13.9 h in [5] (human, 5 mg/subject (0.07 mg/kg), capsules, once daily po. 7 days); 13.0 h in [5] (human, 10 mg/subject (0.14 mg/kg), capsules, once daily po. 7 days); 10.1 h in data set [5] (human, 20 mg/subject (0.28 mg/kg), capsules, once daily po. 7 days).

As to `CC(C)NCC(O)COc1ccc(CC(N)=O)cc1` (stereo not shown) [atenolol], the “left atrial systolic and global function” value in [7] is given as “significantly decreased”.

The values are drawn from patent US20130040937A1, “INHIBITORS FOR TREATING AND PREVENTING HEART FAILURE IN FELINES” (BOEHRINGER INGELHEIM VETMEDICA GMBH, priority 2011, published 2013).
